In patent US12398107B2, “Fungicidal nitroanilino substituted pyrazoles” (FMC Corporation, priority 2018, dated 2025):

Tests used:
Assay type in all cases: in vivo
[1] = system: Botrytis cinerea; experiment: Test E: tomato Botrytis, preventive spray on tomato seedlings; conditions: 50 ppm, 100 = 100% disease control, 0 = no control
Summary of the method: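 Preventive test: spore inoculation one day after run-off spraying of compound suspension (3% acetone, acetone/water 50/50, 250 ppm PEG400). Incubation 20 °C saturated humidity for 48 h, followed by 3 days at 24 °C growth chamber; disease control scored visually, 100 = full control.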

[2] = system: Puccinia recondita f. sp. tritici; experiment: Test B: wheat leaf rust, preventive spray on wheat seedlings; conditions: 50 ppm, 100 = 100% disease control, 0 = no control relative to controls
Summary of the method: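 Wheat seedlings got a run-off spray (ppm, acetone/water 50/50, 250 ppm PEG400) and one day later a spore inoculum. After 24 h at 20° C. in saturated air and 7 days at 20° C., disease was scored as % control relative to controls (100 = full control).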

[3] = system: Blumeria graminis f. sp. tritici; experiment: Test C: wheat powdery mildew, preventive spray on wheat seedlings; conditions: 50 ppm, rated after 8 days, 100 = 100% disease control, 0 = no control
Summary of the method: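 Wheat seedlings got a run-off spray of test suspension (ppm in acetone/water 50/50, 250 ppm PEG400, acetone 3% of volume), then spore-dust inoculation with wheat powdery mildew one day later. After 8 days' growth-chamber incubation at 20° C, disease control scored visually on a 0–100 scale versus untreated controls.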

[4] = system: Alternaria solani; experiment: Test F: tomato early blight, preventive spray on tomato seedlings; conditions: 50 ppm, 100 = 100% disease control, 0 = no control
Summary of the method: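 Preventive test: one day after seedlings were sprayed to run-off with ppm-level suspensions (acetone/water 50/50, 250 ppm PEG400), A. solani spore inoculation followed. Incubation was 48 h at 27° C in saturated air plus 3 days at 20° C; disease control was scored visually versus controls (100 = full control).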

[5] = system: Phakopsora pachyrhizi; experiment: Test D: Asian soybean rust, preventive spray on soybean seedlings; conditions: 50 ppm, 100 = 100% disease control, 0 = no control
Summary of the method: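 Soybean seedlings sprayed to run-off with compound suspension (ppm, in 50/50 acetone/water with 250 ppm PEG400), inoculated next day with P. pachyrhizi spores, held 24 h saturated at 22°C then 8 days at 22°C. Visual rating 0-100% disease control relative to controls.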

[6] = system: Septoria tritici; experiment: Test A: wheat leaf blotch, preventive spray on wheat seedlings; conditions: 50 ppm, 100 = 100% disease control, 0 = no control relative to controls
Summary of the method: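 Preventive test: seedlings sprayed to run-off one day before Septoria tritici spore inoculation, with ppm doses in acetone/water containing 250 ppm PEG400. After 48 h at 24 °C in saturated air and 17 days at 20 °C, plants were scored 0–100 for disease control versus untreated controls.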

## Cc1nn(C)c(Nc2c(F)cc(F)cc2[N+](=O)[O-])c1-c1ccc(F)cc1F [Compound 58]
[1]
  Test E disease control rating (tomato Botrytis): 99%
[2]
  Test B disease control rating (wheat leaf rust): 100%
[3]
  Test C disease control rating (wheat powdery mildew): 99%
[4]
  Test F disease control rating (tomato early blight): 99%
[5]
  Test D disease control rating (Asian soybean rust): 36%
[6]
  Test A disease control rating (wheat leaf blotch): 100%

## CCc1nn(C)c(Nc2c(Cl)cc(C)cc2[N+](=O)[O-])c1-c1ccc(F)cc1F [Compound 16]
[1]
  Test E disease control rating (tomato Botrytis): 99%
[2]
  Test B disease control rating (wheat leaf rust): 99%
[3]
  Test C disease control rating (wheat powdery mildew): 98%
[4]
  Test F disease control rating (tomato early blight): 0%
[5]
  Test D disease control rating (Asian soybean rust): 50%
[6]
  Test A disease control rating (wheat leaf blotch): 100%

## COc1ccc(-c2c(C)nn(C)c2Nc2c(F)cc(Br)cc2[N+](=O)[O-])c(Cl)c1 [Compound 182]
[1]
  Test E disease control rating (tomato Botrytis): 100%
[2]
  Test B disease control rating (wheat leaf rust): 99%
[3]
  Test C disease control rating (wheat powdery mildew): 76%
[4]
  Test F disease control rating (tomato early blight): 99%
[5]
  Test D disease control rating (Asian soybean rust): 0%
[6]
  Test A disease control rating (wheat leaf blotch): 100%

## Cc1cc(F)c(Nc2c(-c3ccc(C#N)cc3Cl)c(C)nn2C)c([N+](=O)[O-])c1 [Compound 127, 3-chloro-4-[5-[(2-fluoro-4-methyl-6-nitrophenyl)amino]-1,3-dimethyl-1H-pyrazol-4-yl]benzonitrile]
[1]; Botrytis cinerea, read-out: Test E disease control rating (tomato Botrytis)
  pest or weed control at 50 ppm: 100%
[2]; read-out: Test B disease control rating (wheat leaf rust)
  pest or weed control at 50 ppm: 99%
[3]; Blumeria graminis, 192 h, read-out: Test C disease control rating (wheat powdery mildew)
  pest or weed control at 50 ppm: 92%
[4]; Alternaria solani, read-out: Test F disease control rating (tomato early blight)
  pest or weed control at 50 ppm: 100%
[5]; Phakopsora pachyrhizi, read-out: Test D disease control rating (Asian soybean rust)
  pest or weed control at 50 ppm: 96%
[6]; Zymoseptoria tritici, read-out: Test A disease control rating (wheat leaf blotch)
  pest or weed control at 50 ppm: 100%

## COc1ccc(Nc2c(-c3c(F)cc(F)cc3F)c(C)nn2C)c([N+](=O)[O-])c1 [Compound 159]
[1]
  Test E disease control rating (tomato Botrytis): 99%
[2]
  Test B disease control rating (wheat leaf rust): 100%
[3]
  Test C disease control rating (wheat powdery mildew): 100%
[4]
  Test F disease control rating (tomato early blight): 99%
[5]
  Test D disease control rating (Asian soybean rust): 13%
[6]
  Test A disease control rating (wheat leaf blotch): 100%

## Cc1nn(C)c(Nc2c(Cl)cccc2[N+](=O)[O-])c1-c1ccc(F)cc1Br [Compound 41]
[1]
  Test E disease control rating (tomato Botrytis): 77%
[2]
  Test B disease control rating (wheat leaf rust): 100%
[3]
  Test C disease control rating (wheat powdery mildew): 94%
[4]
  Test F disease control rating (tomato early blight): 0%
[5]
  Test D disease control rating (Asian soybean rust): 77%
[6]
  Test A disease control rating (wheat leaf blotch): 100%

## Cc1cccc([N+](=O)[O-])c1Nc1c(-c2c(F)cc(F)cc2Br)c(C)nn1C [Compound 169]
[1]
  Test E disease control rating (tomato Botrytis): 98%
[2]
  Test B disease control rating (wheat leaf rust): 100%
[3]
  Test C disease control rating (wheat powdery mildew): 100%
[4]
  Test F disease control rating (tomato early blight): 0%
[5]
  Test D disease control rating (Asian soybean rust): 0%
[6]
  Test A disease control rating (wheat leaf blotch): 100%
